Source: patent US20250313563A1, “GLYCOGEN SYNTHASE KINASE 3 INHIBITORS AND USES THEREOF” (The Broad Institute, Inc., priority 2022, published 2025)
Where two headings read alike, the source gives them in different places.

What was measured:
[1] = target: GSK3α (GST-full length GSK3α) (Homo sapiens (Human), UniProt P49840); assay: GSK3α TR-FRET kinase assay; assay type: biochemical
Outline: (§1)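 Readout: anti-pSer641 Tb antibody/streptavidin-d2 signal after 60 min, expressed as 665/615 ratio and fitted versus log concentration for IC50. Enzyme: 1 nM GST-GSK3 (α or β), compound-preincubated 30 min. Conditions: pH 7.5 Tris buffer with MgCl2, DTT, BSA; ATP at 4 or 2 μM, or 1 mM; 100 min.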

[2] = target: GSK3b (GST-full length GSK3b) (Homo sapiens (Human), UniProt P49841); assay: GSK3b TR-FRET kinase assay; assay type: biochemical
Outline: as §1

[3] = 1 nM GSK3α, 4 μM ATP, 30 minute preincubation, Table 16, read-out: GSK3-A TR-FRET BIOCHEMICAL (TR-FRET)
[4] = 1 nM GSK3b, 2 μM ATP, 30 minute preincubation, Table 16, read-out: GSK3-B TR-FRET BIOCHEMICAL (TR-FRET)
[5] = 1 nM GSK3α, 4 μM ATP, 30 minute preincubation, read-out: GSK3-A TR-FRET BIOCHEMICAL (TR-FRET), IC50
[6] = 1 nM GSK3b, 2 μM ATP, 30 minute preincubation, read-out: GSK3-B TR-FRET BIOCHEMICAL (TR-FRET), IC50
[7] = read-out: GSK3-A (TR-FRET 1 mM ATP), GMean, IC50, 1 mM ATP, geometric mean
[8] = read-out: GSK3-B (TR-FRET 1 mM ATP), GMean, IC50, 1 mM ATP, geometric mean
[9] = GSK3-A (TR-FRET 1 mM ATP), GMean, IC50, 1 mM ATP, geometric mean
[10] = GSK3-B (TR-FRET 1 mM ATP), GMean, IC50, 1 mM ATP, geometric mean

GSK3α (GST-full length GSK3α), sequence (P49840 whole entry): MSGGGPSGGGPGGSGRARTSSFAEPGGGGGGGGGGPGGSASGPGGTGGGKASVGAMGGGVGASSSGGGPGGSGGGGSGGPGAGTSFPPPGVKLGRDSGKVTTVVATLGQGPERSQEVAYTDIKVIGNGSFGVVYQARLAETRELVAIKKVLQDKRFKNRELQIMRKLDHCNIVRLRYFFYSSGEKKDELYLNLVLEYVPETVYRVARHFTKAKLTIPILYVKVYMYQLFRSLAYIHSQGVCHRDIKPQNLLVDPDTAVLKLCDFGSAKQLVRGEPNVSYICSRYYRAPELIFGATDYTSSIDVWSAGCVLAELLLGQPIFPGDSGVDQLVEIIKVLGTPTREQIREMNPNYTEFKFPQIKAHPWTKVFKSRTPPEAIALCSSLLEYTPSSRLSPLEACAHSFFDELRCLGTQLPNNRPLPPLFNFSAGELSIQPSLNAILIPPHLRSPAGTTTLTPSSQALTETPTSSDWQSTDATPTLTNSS
GSK3b (GST-full length GSK3b), sequence (P49841 whole entry): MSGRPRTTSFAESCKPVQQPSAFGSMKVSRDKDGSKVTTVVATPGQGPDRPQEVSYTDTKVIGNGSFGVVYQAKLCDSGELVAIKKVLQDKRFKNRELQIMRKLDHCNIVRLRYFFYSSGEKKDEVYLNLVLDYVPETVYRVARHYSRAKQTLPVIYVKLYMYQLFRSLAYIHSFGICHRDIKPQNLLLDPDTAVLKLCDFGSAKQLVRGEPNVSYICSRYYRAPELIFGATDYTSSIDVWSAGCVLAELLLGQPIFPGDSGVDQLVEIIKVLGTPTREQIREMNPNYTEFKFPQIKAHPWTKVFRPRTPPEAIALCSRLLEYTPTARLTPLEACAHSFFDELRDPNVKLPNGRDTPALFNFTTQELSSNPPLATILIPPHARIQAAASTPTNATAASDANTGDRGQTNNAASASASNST

IC50 [1, 3] | IC50 [2, 4] | Compound | further results
100 to 1000 nM | 100 to 1000 nM | CCC1(c2cccc(CS(C)(=O)=O)c2)C2=C(CC(C)(C)CC2=O)Nc2n[nH]cc21 (stereo not drawn) [Compound 945601] | –
1000 to 5000 nM | > 5000 nM | CC[C@]1(c2cccc(-c3cnc(C)n3C)c2)C2=C(CC(C)(C)CC2=O)Nc2n[nH]cc21 [Compound 945612] | –
≤ 100 nM | ≤ 100 nM | CC[C@@]1(c2cccc(-c3cnc(C)n3C)c2)C2=C(CC(C)(C)CC2=O)Nc2n[nH]cc21 [Compound 945613] | IC50 [1, 7]: 100 to 1000 nM; IC50 [2, 8]: 1000 to 5000 nM
1000 to 5000 nM | > 5000 nM | CC[C@@]1(c2cccc(-c3ccnc4c3CCC4)c2)C2=C(CC(C)(C)CC2=O)Nc2n[nH]cc21 [Compound 945619] | –
≤ 100 nM | ≤ 100 nM | COc1cccc(S(=O)(=O)N2CCC3(CC2)C2=C(CC(C)(C)CC2=O)Nc2n[nH]cc23)c1F [Compound 945656] | IC50 [1, 9]: ≤ 100 nM; IC50 [2, 10]: 100 to 1000 nM
≤ 100 nM | ≤ 100 nM | CC1(C)CC(=O)C2=C(C1)Nc1n[nH]cc1C21CCN(S(=O)(=O)c2ccc(Cl)c(Cl)c2)CC1 [Compound 945660] | –
≤ 100 nM | ≤ 100 nM | CC1(C)CC(=O)C2=C(C1)Nc1n[nH]cc1C21CCN(S(=O)(=O)c2ccc(Cl)cc2)CC1 [Compound 945661] | –
≤ 100 nM | 100 to 1000 nM | COc1ccc(S(=O)(=O)N2CCC3(CC2)C2=C(CC(C)(C)CC2=O)Nc2n[nH]cc23)c(C)c1C [Compound 945662] | –
≤ 100 nM | ≤ 100 nM | COc1ccc(S(=O)(=O)N2CCC3(CC2)C2=C(CC(C)(C)CC2=O)Nc2n[nH]cc23)cn1 [Compound 945666] | –
≤ 100 nM | ≤ 100 nM | COc1cc(S(=O)(=O)N2CCC3(CC2)C2=C(CC(C)(C)CC2=O)Nc2n[nH]cc23)ccc1Cl [Compound 945669] | –
≤ 100 nM | ≤ 100 nM | CC(C)Oc1ccc(S(=O)(=O)N2CCC3(CC2)C2=C(CC(C)(C)CC2=O)Nc2n[nH]cc23)cn1 [Compound 945676] | –
≤ 100 nM | ≤ 100 nM | CCC1(c2cccc(-c3c(C)cncc3C)c2)C2=C(CC(C)(C)CC2=O)Nc2n[nH]cc21 (stereo not drawn) [Compound 945703] | –
≤ 100 nM | ≤ 100 nM | CCC1(c2cccc(-c3c(F)cncc3OC)c2)C2=C(CC(C)(C)CC2=O)Nc2n[nH]cc21 (stereo not drawn) [Compound 945704] | IC50 [1, 7]: ≤ 100 nM; IC50 [2, 8]: 100 to 1000 nM
≤ 100 nM | ≤ 100 nM | CCC1(c2cccc(C(F)F)c2)C2=C(CC(C)(C)CC2=O)Nc2n[nH]c(C(F)(F)F)c21 (stereo not drawn) [Compound 945710] | IC50 [1, 7]: ≤ 100 nM; IC50 [2, 8]: ≤ 100 nM

The remaining lines, values behind:

Compound | IC50 [1, 3] | IC50 [2, 4] | further results
CCC1(c2cccc(N3CCOCC3)c2)C2=C(CC(C)(C)NC2=O)Nc2n[nH]cc21 (stereo not drawn) [Compound 945602] | – | – | IC50 [1, 5]: 1000 to 5000 nM; IC50 [2, 6]: > 5000 nM
CCC1(c2cccc(-c3cnn4c3CCCC4)c2)C2=C(CC(C)(C)NC2=O)Nc2n[nH]cc21 (stereo not drawn) [Compound 945603] | – | – | IC50 [1, 5]: ≤ 100 nM; IC50 [2, 6]: 100 to 1000 nM
CC[C@]1(c2cccc(S(C)(=O)=O)c2)C2=C(CC(C)(C)NC2=O)Nc2n[nH]cc21 [Compound 945604] | – | – | IC50 [1, 5]: ≤ 100 nM; IC50 [2, 6]: ≤ 100 nM
CC[C@]1(c2cccc(-c3cncn3C)c2)C2=C(CC(C)(C)CC2=O)Nc2n[nH]cc21 [Compound 945605] | ≤ 100 nM | ≤ 100 nM | –
CCC1(c2cccc(-c3ccnc4c3CCC4)c2)C2=C(CC(C)(C)CC2=O)Nc2n[nH]cc21 (stereo not drawn) [Compound 945606] | ≤ 100 nM | 100 to 1000 nM | IC50 [1, 7]: 100 to 1000 nM; IC50 [2, 8]: 1000 to 5000 nM
CC[C@]1(c2cccc(-c3cnc4n3CCCC4)c2)C2=C(CC(C)(C)CC2=O)Nc2n[nH]cc21 [Compound 945607] | ≤ 100 nM | 100 to 1000 nM | IC50 [1, 7]: 1000 to 5000 nM; IC50 [2, 8]: > 5000 nM
CC[C@]1(c2cccc(-c3cnn(C)c3C)c2)C2=C(CC(C)(C)NC2=O)Nc2n[nH]cc21 [Compound 945608] | – | – | IC50 [1, 5]: ≤ 100 nM; IC50 [2, 6]: 100 to 1000 nM
CC[C@]1(c2cccc(N(C)c3cc(C)cc(C)n3)c2)C2=C(CC(C)(C)CC2=O)Nc2n[nH]cc21 [Compound 945610] | ≤ 100 nM | 100 to 1000 nM | –
CC[C@]1(c2cccc(-c3cnn(C)c3)c2)C2=C(CC(C)(C)NC2=O)Nc2n[nH]c(C)c21 [Compound 945611] | – | – | IC50 [1, 5]: > 5000 nM; IC50 [2, 6]: > 5000 nM
CCC1(c2cccc(-c3cnn(C)c3)c2)C2=C(CC(C)(C)NC2=O)Nc2n[nH]c(C)c21 (stereo not drawn) [Compound 945614] | – | – | IC50 [1, 5]: ≤ 100 nM; IC50 [1, 7]: 100 to 1000 nM; IC50 [2, 6]: 100 to 1000 nM; IC50 [2, 8]: 1000 to 5000 nM
CC[C@@]1(c2cccc(-c3cnn(C)c3C)c2)C2=C(CC(C)(C)NC2=O)Nc2n[nH]cc21 [Compound 945617] | – | – | IC50 [1, 5]: 1000 to 5000 nM; IC50 [2, 6]: > 5000 nM
CCC1(c2cccc(-c3cncn3C)c2)C2=C(CC(C)(C)CC2=O)Nc2n[nH]cc21 (stereo not drawn) [Compound 945620] | 100 to 1000 nM | 1000 to 5000 nM | –
CC[C@@]1(c2cccc(C(F)(F)F)c2)C2=C(CCN(C(C)(C)C)C2=O)Nc2n[nH]cc21 [Compound 945633] | – | – | IC50 [1, 5]: > 5000 nM; IC50 [2, 6]: > 5000 nM
CC[C@]1(c2cccc(C(F)(F)F)c2)C2=C(CCN(C(C)(C)C)C2=O)Nc2n[nH]cc21 [Compound 945634] | – | – | IC50 [1, 5]: 1000 to 5000 nM; IC50 [2, 6]: > 5000 nM
CCC1(c2cccc(C(F)(F)F)c2)C2=C(CCN(c3cccnc3)C2=O)Nc2n[nH]cc21 (stereo not drawn) [Compound 945637] | – | – | IC50 [1, 5]: ≤ 100 nM; IC50 [2, 6]: 100 to 1000 nM
CC1(C)CC(=O)C2=C(C1)Nc1n[nH]cc1C21CCN(S(=O)(=O)c2ccccc2Cl)CC1 [Compound 945655] | ≤ 100 nM | ≤ 100 nM | –
CC1(C)CC(=O)C2=C(C1)Nc1n[nH]cc1C21CCN(S(=O)(=O)c2ccccc2C(F)F)CC1 [Compound 945657] | ≤ 100 nM | 100 to 1000 nM | IC50 [1, 9]: 100 to 1000 nM; IC50 [2, 10]: 1000 to 5000 nM

Compound | IC50 [1, 3] | IC50 [2, 4] | further results
Cc1cnn(C)c1S(=O)(=O)N1CCC2(CC1)C1=C(CC(C)(C)CC1=O)Nc1n[nH]cc12 [Compound 945658] | 100 to 1000 nM | 1000 to 5000 nM | –
CN(C)C(=O)c1ccc(S(=O)(=O)N2CCC3(CC2)C2=C(CC(C)(C)CC2=O)Nc2n[nH]cc23)cc1 [Compound 945659] | ≤ 100 nM | ≤ 100 nM | –
CC(C)c1nc(S(=O)(=O)N2CCC3(CC2)C2=C(CC(C)(C)CC2=O)Nc2n[nH]cc23)cn1C [Compound 945663] | ≤ 100 nM | ≤ 100 nM | –
CCn1nccc1S(=O)(=O)N1CCC2(CC1)C1=C(CC(C)(C)CC1=O)Nc1n[nH]cc12 [Compound 945664] | ≤ 100 nM | ≤ 100 nM | –
COc1ccc(F)c(S(=O)(=O)N2CCC3(CC2)C2=C(CC(C)(C)CC2=O)Nc2n[nH]cc23)c1 [Compound 945665] | ≤ 100 nM | ≤ 100 nM | –
CC1(C)CC(=O)C2=C(C1)Nc1n[nH]cc1C21CCN(S(=O)(=O)c2ccccc2C(F)(F)F)CC1 [Compound 945667] | ≤ 100 nM | 100 to 1000 nM | –
CC1(C)CC(=O)C2=C(C1)Nc1n[nH]cc1C21CCN(S(=O)(=O)c2ccccc2OC(F)F)CC1 [Compound 945668] | – | – | IC50 [1, 5]: ≤ 100 nM; IC50 [1, 9]: ≤ 100 nM; IC50 [2, 6]: ≤ 100 nM; IC50 [2, 10]: 100 to 1000 nM
CCOc1ccc(S(=O)(=O)N2CCC3(CC2)C2=C(CC(C)(C)CC2=O)Nc2n[nH]cc23)cc1 [Compound 945670] | ≤ 100 nM | ≤ 100 nM | IC50 [1, 9]: 100 to 1000 nM; IC50 [2, 10]: 1000 to 5000 nM
CCn1ccc(S(=O)(=O)N2CCC3(CC2)C2=C(CC(C)(C)CC2=O)Nc2n[nH]cc23)n1 [Compound 945671] | ≤ 100 nM | ≤ 100 nM | –
Cc1ccc(S(=O)(=O)N2CCC3(CC2)C2=C(CC(C)(C)CC2=O)Nc2n[nH]cc23)s1 [Compound 945672] | ≤ 100 nM | ≤ 100 nM | IC50 [1, 9]: 100 to 1000 nM; IC50 [2, 10]: 100 to 1000 nM
CC(C)Oc1ccc(S(=O)(=O)N2CCC3(CC2)C2=C(CC(C)(C)CC2=O)Nc2n[nH]cc23)cc1 [Compound 945673] | ≤ 100 nM | ≤ 100 nM | –
Cc1cc(S(=O)(=O)N2CCC3(CC2)C2=C(CC(C)(C)CC2=O)Nc2n[nH]cc23)c(C)s1 [Compound 945674] | ≤ 100 nM | 100 to 1000 nM | –
CC1(C)CC(=O)C2=C(C1)Nc1n[nH]cc1C21CCN(S(=O)(=O)c2cnn(C(C)(C)C)c2)CC1 [Compound 945677] | ≤ 100 nM | 100 to 1000 nM | –
Cc1cc(S(=O)(=O)N2CCC3(CC2)C2=C(CC(C)(C)CC2=O)Nc2n[nH]cc23)ccc1OC(C)C [Compound 945678] | ≤ 100 nM | 100 to 1000 nM | –
CCn1nc(C)c(S(=O)(=O)N2CCC3(CC2)C2=C(CC(C)(C)CC2=O)Nc2n[nH]cc23)c1C [Compound 945679] | 100 to 1000 nM | 1000 to 5000 nM | –
COc1ccc(S(=O)(=O)N2CCC3(CC2)C2=C(CC(C)(C)CC2=O)Nc2n[nH]cc23)cc1C [Compound 945680] | ≤ 100 nM | ≤ 100 nM | –
Cn1ccc(S(=O)(=O)N2CC[C@]3(C2)C2=C(CC(C)(C)CC2=O)Nc2n[nH]cc23)n1 [Compound 945712] | – | – | IC50 [1, 5]: ≤ 100 nM; IC50 [1, 9]: ≤ 100 nM; IC50 [2, 6]: ≤ 100 nM; IC50 [2, 10]: 100 to 1000 nM
